Entries after “also recorded” stand apart in the source; their conditions may differ. Read-outs that look alike come from different tables or passages of the source.
Experiments:
[1] = system: mouse ESC-derived MNs; assay: MN survival with activated BV2 cells; format: cell-based
[2] = system: mouse ESC-derived MNs; assay: Compounds on unstressed MNs; format: cell-based; conditions: for toxicity to unstressed MNs: absence of any stress; for survival of unstressed MNs: unstressed conditions
[3] = system: mouse ESC-derived MNs; assay: MN survival with DetaNO; format: cell-based
[4] = system: mouse ESC-derived MNs; assay: CHIR rescue of CP681301-mediated cytotoxicity; format: cell-based; conditions: 5 μM CP681301, increasing concentrations of CHIR (1.25-2.5 µM)
[5] = system: human iPSC-derived MNs; assay: TUBB3 immunostaining and neurite segmentation of human MNs with DetaNO; format: cell-based
[6] = biological target: T1, CDK7 (Homo sapiens, UniProt P50613); conditions: 10 μM; ref Fabian et al., 2005; http://lincs.hms.harvard.edu/db/datasets/20044/; cited from earlier work
T1 sequence (P50613 whole entry, species assumed): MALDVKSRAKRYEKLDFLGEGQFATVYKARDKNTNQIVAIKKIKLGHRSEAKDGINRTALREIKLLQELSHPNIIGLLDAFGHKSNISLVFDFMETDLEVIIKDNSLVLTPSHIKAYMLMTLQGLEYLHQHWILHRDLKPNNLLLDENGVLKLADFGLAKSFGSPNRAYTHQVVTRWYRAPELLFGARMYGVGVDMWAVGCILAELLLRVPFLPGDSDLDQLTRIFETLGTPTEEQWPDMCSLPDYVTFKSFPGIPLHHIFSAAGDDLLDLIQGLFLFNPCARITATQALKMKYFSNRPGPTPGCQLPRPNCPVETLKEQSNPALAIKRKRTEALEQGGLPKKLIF
T1 sequence (P51946 whole entry partner, species assumed): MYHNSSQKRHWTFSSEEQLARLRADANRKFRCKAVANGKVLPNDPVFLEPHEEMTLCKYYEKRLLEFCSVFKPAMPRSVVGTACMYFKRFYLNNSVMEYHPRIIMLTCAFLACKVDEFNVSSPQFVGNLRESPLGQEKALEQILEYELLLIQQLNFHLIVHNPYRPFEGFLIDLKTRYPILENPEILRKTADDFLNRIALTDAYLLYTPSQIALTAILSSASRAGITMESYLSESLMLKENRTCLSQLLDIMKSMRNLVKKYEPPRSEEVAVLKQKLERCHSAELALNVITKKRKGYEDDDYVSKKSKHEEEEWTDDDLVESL
T1 sequence (P51948 whole entry partner, species assumed): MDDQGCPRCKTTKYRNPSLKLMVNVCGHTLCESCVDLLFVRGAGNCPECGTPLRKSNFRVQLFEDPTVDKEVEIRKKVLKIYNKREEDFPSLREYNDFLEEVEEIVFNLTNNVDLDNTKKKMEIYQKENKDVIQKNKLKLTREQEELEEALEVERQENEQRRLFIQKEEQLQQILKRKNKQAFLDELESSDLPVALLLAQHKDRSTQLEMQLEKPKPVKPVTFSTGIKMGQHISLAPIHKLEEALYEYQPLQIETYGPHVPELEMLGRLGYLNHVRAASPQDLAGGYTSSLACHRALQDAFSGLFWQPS

[7] = biological target: T2, CDK9 (Homo sapiens, UniProt P50750); conditions: 10 μM; ref Fabian et al., 2005; http://lincs.hms.harvard.edu/db/datasets/20044/; cited from earlier work
T2 sequence (P50750 whole entry, species assumed): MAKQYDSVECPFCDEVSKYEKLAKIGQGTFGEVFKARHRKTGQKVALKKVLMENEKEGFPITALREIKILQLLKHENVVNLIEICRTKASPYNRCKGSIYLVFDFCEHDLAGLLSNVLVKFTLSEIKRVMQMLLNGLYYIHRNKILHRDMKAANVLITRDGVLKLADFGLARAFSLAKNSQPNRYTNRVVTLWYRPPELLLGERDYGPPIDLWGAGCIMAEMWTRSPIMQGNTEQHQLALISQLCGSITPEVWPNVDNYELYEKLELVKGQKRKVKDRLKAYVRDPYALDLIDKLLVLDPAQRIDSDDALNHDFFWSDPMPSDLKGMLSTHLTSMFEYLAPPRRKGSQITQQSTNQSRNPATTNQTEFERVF
T2 sequence (O60563 whole entry partner, species assumed): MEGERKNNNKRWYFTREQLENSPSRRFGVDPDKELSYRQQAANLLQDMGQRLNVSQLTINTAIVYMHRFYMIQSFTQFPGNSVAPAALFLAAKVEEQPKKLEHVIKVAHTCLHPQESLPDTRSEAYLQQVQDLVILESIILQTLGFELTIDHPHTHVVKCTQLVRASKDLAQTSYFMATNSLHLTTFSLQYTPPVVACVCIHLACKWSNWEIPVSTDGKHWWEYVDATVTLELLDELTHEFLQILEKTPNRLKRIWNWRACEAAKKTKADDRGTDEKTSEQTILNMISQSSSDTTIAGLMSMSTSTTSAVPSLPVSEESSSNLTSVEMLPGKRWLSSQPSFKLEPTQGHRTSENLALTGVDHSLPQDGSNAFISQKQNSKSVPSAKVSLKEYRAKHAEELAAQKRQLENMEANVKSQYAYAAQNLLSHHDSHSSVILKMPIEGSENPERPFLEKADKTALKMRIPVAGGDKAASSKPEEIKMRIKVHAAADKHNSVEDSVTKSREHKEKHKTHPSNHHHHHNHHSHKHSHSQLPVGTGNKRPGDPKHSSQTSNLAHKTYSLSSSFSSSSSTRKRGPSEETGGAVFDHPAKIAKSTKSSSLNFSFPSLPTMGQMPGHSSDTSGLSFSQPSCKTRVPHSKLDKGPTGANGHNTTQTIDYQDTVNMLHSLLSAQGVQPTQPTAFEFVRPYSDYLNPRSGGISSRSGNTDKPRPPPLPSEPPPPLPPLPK

[8] = system: FACS-purified mouse ESC-derived MNs; assay: FACS-purified MNs cultured with DetaNO in the absence of astrocytes; format: cell-based
[9] = biological target: GSK3β (Homo sapiens, UniProt P49841); conditions: 1 μM; ref Chen et al., 2016; cited from earlier work
Chain of GSK3β (P49841 whole entry, species assumed): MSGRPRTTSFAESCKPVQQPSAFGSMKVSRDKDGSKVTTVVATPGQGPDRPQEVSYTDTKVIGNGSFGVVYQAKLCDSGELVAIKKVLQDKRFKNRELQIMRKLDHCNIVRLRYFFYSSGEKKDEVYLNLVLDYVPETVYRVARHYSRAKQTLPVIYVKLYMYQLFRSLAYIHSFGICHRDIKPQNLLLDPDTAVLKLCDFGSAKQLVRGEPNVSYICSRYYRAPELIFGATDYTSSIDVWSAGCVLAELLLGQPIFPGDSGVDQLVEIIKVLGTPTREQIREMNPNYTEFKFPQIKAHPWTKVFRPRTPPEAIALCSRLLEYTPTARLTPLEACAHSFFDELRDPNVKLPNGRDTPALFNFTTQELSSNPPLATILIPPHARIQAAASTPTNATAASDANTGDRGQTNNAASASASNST

[10] = system: human iPSC-derived MNs; assay: CellTiter-Glo assay, human MNs stressed with 400 μM DetaNO; format: cell-based
[11] = biological target: T1, CDK7; assay: CDK7 LANCE Assay; conditions: biochemical profiling
[12] = system: iPSC-derived MNs; assay: Label-free quantitative phosphoproteomics of DetaNO-treated MNs; format: cell-based, human
[13] = biological target: T2, CDK9; assay: CDK9 LANCE Assay; conditions: biochemical profiling

Row | SMILES | protection of MNs from activated BV2-induced degeneration (words) [1] | toxicity to unstressed MNs [2] | protection of MNs from DetaNO-induced degeneration (words) [3] | other results
1 | CC1CCN=C(N)S1 (centres unmarked) [AMT, 2-amino-5,6-dihydro-6-methyl-4H-1,3-thiazine] | rescued | – | – | –
2 | CC(C)(C)c1cnc(CSc2cnc(NC(=O)C3CCNCC3)s2)o1 [BMS-387032] | robustly protected; also recorded: rescued | induced toxicity | robustly protected; also recorded: rescued | –
3 | Cc1c[nH]c(-c2cnc(NCCNc3ccc(C#N)cn3)nc2-c2ccc(Cl)cc2Cl)n1 [CHIR] | – | did not show any cytotoxic effects | failed to protect | survival of unstressed MNs [2]: small, but significant increase; rescue of MNs from CP681301-mediated cytotoxicity [4]: rescued
4 | NCCN(CCN)/[N+]([O-])=N/O [DetaNO, diethylenetriamine/NO adduct] | – | – | – | number of TUBB3-positive punctae ([5]; 400 μM DetaNO for 24 h): large increase; area of TUBB3-positive neurite segments ([5]; iPSC-derived MNs, DetaNO): decreased
5 | NS(=O)(=O)c1ccc(Nc2nc(OCC3CCCCC3)c3[nH]cnc3n2)cc1 [NU6102] | – | – | not protective | –
6 | CC(=O)c1c(C)c2cnc(Nc3ccc(N4CCNCC4)cn3)nc2n(C2CCCC2)c1=O [PD332991] | – | – | not neuroprotective | ATP binding to CDK7 [6]: significantly reduces ATP binding; ATP binding to CDK9 [7]: significantly reduces ATP binding
7 | COc1ccc(F)c(F)c1C(=O)c1cnc(NC2CCN(S(C)(=O)=O)CC2)nc1N [R-547] | robustly protected; also recorded: rescued | – | robustly protected; also recorded: rescued | –
8 | CCc1cnn2c(NCc3ccc[n+]([O-])c3)cc(N3CCCC[C@H]3CCO)nc12 [dinaciclib] | robustly protected | induced toxicity | robustly protected | protection of FACS-purified MNs from DetaNO-induced degeneration [8]: protected; protection of MNs from activated BV2-induced degeneration (words) ([1]; listed as Dinaciclib): rescued; reduction of the activity of GSK3β [9]: about 70%; rescue of human MNs from DetaNO stress, CellTiter-Glo ATP levels [10]: potently rescued; protection of MNs from DetaNO-induced degeneration (words) ([3]; listed as Dinaciclib): rescued
9 | CN1CC[C@H](c2c(O)cc(O)c3c(=O)cc(-c4ccccc4Cl)oc23)[C@H](O)C1 [flavopiridol] | robustly protected; also recorded: rescued | induced toxicity | robustly protected; also recorded: rescued | –
10 | O=C1Cc2c([nH]c3ccc(Br)cc23)-c2ccccc2N1 [kenpaullone] | – | no visible toxicity | robustly protected | inhibition of CDK7 [11]: does not inhibit; survival of unstressed MNs [2]: small increase in MN survival; protection of human MN neurites from DetaNO, TUBB3 neurite segments ([5]; 400 μM DetaNO, 0.625 μM kenpaullone, two iPSC lines): robustly protected; phosphopeptide levels of MAPT, MAP1B and MAP2 ([12]; DetaNO-treated iPSC-derived MNs): consistently decreased; phosphorylation levels of CLASP1, CLASP2 and DPYSL2 ([12]; compared with MNs cultured with DetaNO): reduced; inhibition of CDK9 [13]: does not inhibit

— article PMC6409486 (Stem Cell Reports, 2019)
